# Measurements as given in patent US10953016B2, “Solid dosage form containing quinazoline derivative” (Shionogi & Co., Ltd., priority 2017, dated 2021).
# Structures can show the parent of a compound that is named as a salt.
# What was measured:
# Type in all cases: physicochemical
# [1] = Influence of light wavelength on related substances in solution
# Protocol: In order to research the influence of light of the compound represented by formula (I), the amount of the related substances was measured after illumination with constant quantity of light.
# A fixed amount of monohydrochloride of the compound represented by formula (I) was collected and dissolved in a mix of pH7 buffer:methanol:acetonitrile=38:31:31 to prepare a solution of 800 μg/mL. The solution was sealed in glass bottles. Thereafter, the glass bottles containing solution were irradiated with light of different wavelengths by a light irradiator (CRM-FA manufactured by Nippon Spectroscopy) and the amounts of related substances were measured.
# The amount of the related substances was measured by liquid chromatography by employing the following method and conditions. The main related substance was the E-form of the optical isomer of the compound represented by formula (I). Therefore, in the analysis of the related substance amount, the E-form of the optical isomer of the compound represented by formula (I) was used as a reference for the analysis. • Detector: ultraviolet absorptiometer (measurement wavelength: 225 nm) • Column: Cadenza CW-C18 3μ, 4.6×150 mm (Imtakt) • Column temperature: constant temperature around 35° C. • Mobile Phase A: 10 mM ammonium acetate, […]
# [2] = Test of solubility in water for injection; conditions: stirred at 37° C. for 1 hour
# Protocol: 1. Formulation of Calibration Curve
# First, 5 mg of monohydrochloride crystalline form I of the compound represented by formula (I) was precisely weighed and dissolved in a mixed solution of acetonitrile:water (1:1), and thus a 500 μg/mL solution was obtained. The obtained solution was diluted with a mixed solution of acetonitrile:water (1:1) such that the concentrations of the compound were 5 and 50 μg/mL, and a standard calibration curve was prepared. The same operation was carried out for monohydrochloride crystalline form II, monohydrochloride crystalline form V, monohydrochloride crystalline form VI, mono-p-toluenesulfonate crystalline form I, and free base crystals.
# 2. Formulation of Sample Solution
# First, 1 mg of monohydrochloride crystalline form I of the compound represented by formula (I) was precisely weighed and transferred to a vial having a volume of 4 mL. Then, 1 mL of water (water for injection) was added, and the mixture was stirred at 37° C. for 1 hour. After being stirred, this suspension was filtered, and the peak area using a solution obtained by diluting the filtrate two-fold with a mixed solution of acetonitrile:water (1:1) as a sample. The concentration was calculated using the peak area and the calibration curve prepared above. The same operation was carried out for monohydrochloride crystalline form II, monohydrochloride crystalline form V, monohydrochloride crystalline form VI, mono-p-toluenesulfonate crystalline form I, and free base crystals.
# [3] = Test of solubility in organic solvent; conditions: stirred at 22° C. for 4 hours, supernatant; for Concentration (% by weight) 2-Propanol: suspended in 2-propanol; for Concentration (% by weight) Acetone: suspended in acetone; for Concentration (% by weight) Ethyl acetate: suspended in ethyl acetate
# Protocol: The monohydrochloride crystalline form I, monohydrochloride crystalline form V, and free base crystals of the compound represented by formula (I) were each suspended in 2-propanol, acetone, and ethyl acetate, and stirred at 22° C. for 4 hours, and the concentrations of supernatants were measured.
# [4] = Water sorption-desorption isothermal measurement; conditions: ratio of increased moisture mass
# Excerpt: Water Sorption-desorption Isothermal Measurement
# [5] = Light exposure test of crystals (E isomer by HPLC); conditions: for E isomer (Retention time 38 minutes) Increased amount: light exposed sample minus dark control
# [6] = listed as mono-p-toluenesulfonate crystalline form I
# [7] = listed as Monohydrochloride form crystal VI
# [8] = listed as Monohydrochloride form crystal V
Structure (SMILES),Concentration (% by weight) 2-Propanol [3] [% by weight],Concentration (% by weight) Acetone [3] [% by weight],Concentration (% by weight) Ethyl acetate [3] [% by weight],Ratio of increased mass [4],E isomer (Retention time 38 minutes) Light exposed sample [5] [area %],E isomer (Retention time 38 minutes) Increased amount [5] [area %],Solubility in water for injection [2],E isomer (Retention time 38 minutes) Dark control [5] [area %],other results
CC#C/C(=N\OC[C@H]1COCCN1)c1ccc2ncnc(Nc3ccc(OCc4cccc(F)c4)c(Cl)c3)c2c1,,,,,,,,,"Total amount of related substances, wavelength of light higher than 450 nm ([1]; 800 μg/mL solution in pH7 buffer:methanol:acetonitrile=38:31:31, light higher than 450 nm): increased little; Total amount of related substances, wavelength of light shorter than 450 nm ([1]; 800 μg/mL solution in pH7 buffer:methanol:acetonitrile=38:31:31, light shorter than 450 nm): increased as the wavelength decreased"
CC#C/C(=N\OC[C@H]1COCCN1)c1ccc2ncnc(Nc3ccc(OCc4cccc(F)c4)c(Cl)c3)c2c1 [Free base crystal],0.49,8.1,3.3,About 1.0%,2.59,2.59,,,Solubility in water for injection ([2]; listed as free base crystals): not dissolved in water for injection at all
CC#C/C(=N\OC[C@H]1COCCN1)c1ccc2ncnc(Nc3ccc(OCc4cccc(F)c4)c(Cl)c3)c2c1 [Mono-p-toluenesulfonate crystalline form I],,,,About 1.4%,32.86,32.76,high solubilities,0.10,"Ratio of increased mass [4, 6]: small; E isomer (Retention time 38 minutes) Increased amount [5, 6]: about 33 area %"
CC#C/C(=N\OC[C@H]1COCCN1)c1ccc2ncnc(Nc3ccc(OCc4cccc(F)c4)c(Cl)c3)c2c1 [Monohydrochloride crystalline form II],,,,About 0.3%,1.21,−0.23,high solubilities,1.44,Ratio of increased mass ([4]; listed as monohydrochloride crystalline form H): small
CC#C/C(=N\OC[C@H]1COCCN1)c1ccc2ncnc(Nc3ccc(OCc4cccc(F)c4)c(Cl)c3)c2c1 [Monohydrochloride crystalline form I],0.03,0.08,0.01,About 0.8%,4.41,3.78,high solubilities,0.63,Ratio of increased mass ([4]; listed as monohydrochloride crystalline form I): small
CC#C/C(=N\OC[C@H]1COCCN1)c1ccc2ncnc(Nc3ccc(OCc4cccc(F)c4)c(Cl)c3)c2c1 [Monohydrochloride crystalline form VI],,,,About 0.5%,,,high solubilities,,"Ratio of increased mass ([4]; listed as monohydrochloride crystalline form VI): small; E isomer (Retention time 38 minutes) Dark control [5, 7]: 1.16 area %; E isomer (Retention time 38 minutes) Increased amount [5, 7]: 0.64 area %; E isomer (Retention time 38 minutes) Light exposed sample [5, 7]: 1.80 area %"
CC#C/C(=N\OC[C@H]1COCCN1)c1ccc2ncnc(Nc3ccc(OCc4cccc(F)c4)c(Cl)c3)c2c1 [Monohydrochloride crystalline form V],0.01,0.02,0.00,About 1.7%,,,high solubilities,,"Ratio of increased mass ([4]; listed as monohydrochloride crystalline form V): small; E isomer (Retention time 38 minutes) Dark control [5, 8]: 0.13 area %; E isomer (Retention time 38 minutes) Increased amount [5, 8]: 1.06 area %; E isomer (Retention time 38 minutes) Light exposed sample [5, 8]: 1.19 area %"
CC#C/C(=N\OC[C@H]1COCCN1)c1ccc2ncnc(Nc3ccc(OCc4cccc(F)c4)c(Cl)c3)c2c1 [Monosulfate crystal],,,,About 3.3%,,,,,Ratio of increased mass ([4]; listed as monosulfate crystals): about 3.3%
